Here are results for 1 molecule from US20200078360A1, “SMALL MOLECULE DUAL INHIBITORS OF EGFR/PI3K AND USES THEREOF” (The Regents of the University of Michigan, priority 2016, published 2020).

A short description of data set [1]: metabolic stability (FIG. 2). Type of data set: in vitro ADME.
Data set [2] relates to ERBB and PI3K family members. As to the kind of experiment: potency and selectivity against kinase family members (FIG. 1). Type of data set: biochemical.
For data set [3], the system named is RKO (BRAFmt) tumors. As to the kind of experiment: single agent activity against RKO tumors. Type of data set: in vivo. Particulars: FIG. 5.
The subject of data set [4] is EGFR and PI3K pathway signaling. Kind of data set: cellular EGFR and PI3K pathway signaling (Western blots). Type of data set: cell-based. The following applies: FIG. 4. The procedure:
Cells or tumors were lysed in NP-40 lysis buffer [25 mmolL Tris-HCl (pH 7.6), 150 mmol/L NaCl, 1% Nonidet P-40, 10% glycerol, 1 mmol/L EDTA, 1 mmol/L dithiothreitol, and protease and phosphatase inhibitors], rocked for 30 minutes at 4° C., and centrifuged at 13,200 rpm for 20 minutes at 4° C. Protein concentration was determined by BioRad Protein Assays and lysates were subsequently subjected to SDS gel electrophoresis. Proteins were transferred to polyvinylidene fluoride (PVDF) membranes and probed with primary antibodies recognizing p-EGFR tyr1068), EGFR, p-HER2 (tyr1248), HER2, p-AKT (ser473), p-AKT (thr308), AKT, pERK1/2 (thr202/tyr204), ERK1/2, pS6K (ser235/236), S6K, and cleaved PARP (all from Cell Signaling Technology) and beta actin (Abcam). After incubation with anti-rabbit HRP-linked secondary antibody (Jackson ImmunoResearch Laboratories, Inc.), proteins were detected using chemiluminescence (GE Healthcare).
A general note: In western blotting, separated proteins are transferred to a membrane and probed.

Data set [5] in a line: tolerability of daily oral dosing. Type of data set: in vivo. The following applies: daily oral dosing of 100 mg/kg, FIG. 6. The procedure: (§1) For the xenograft studies established from the patient-derived xenograft (PDX) models (UM CRC 14-929 and UM CRC 15-1269), female 6- to 7-week-old NCR nude mice (CrTac:NCr-Foxnlnu from Taconic) were implanted subcutaneously with low-passage PDX tumor fragments (30 mg) into the region of the right axilla. For the xenograft studies established from cell lines (CT-26), cells were injected (1×10^6 cells per injection) into the flanks of female 6- to 7-week old NCR nude mice. In both cases, the mice were randomized into treatment groups and treatments initiated when tumors reached 100 to 200 mg. […] Subcutaneous tumor volume and body weights were measured two to three times a week. Tumor volumes were calculated by measuring two perpendicular diameters with calipers and using the formula: tumor volume ¼ (length x width^2)/2. Percent treated/control (% TC) was calculated by dividing the median treated tumor weight by the median control tumor weight and multiplying by 100 on the last day of treatment. […] Increase in lifespan was calculated by dividing the median increase in lifespan (days) by the median survival time of the vehicle control group. […]

Data set [6] concerns xenograft. As to the kind of experiment: in vivo efficacy in combination with MEK inhibitors (FIG. 22). The arrangement: species or system mice. The procedure:
as §1

Data set [7] deals with HCT-116 (KRASmt) tumors. Kind of data set: single agent activity against HCT-116 tumors. The following applies: FIG. 5. Type of data set: in vivo.

Regarding `CS(=O)(=O)Nc1cc(-c2ccc3ncnc(Nc4ccc(F)c(Cl)c4)c3c2)cnc1Cl` [MTX-211], the metabolic stability result in data set [1] is recorded as “favorable metabolic stability”. The “potency and selectivity against ERBB and PI3K family members” value in data set [2] was “potent and highly selective”. For the same molecule, the “activity against RKO (BRAFmt) tumors” value in data set [3] is on record as “single agent activity”. The “modulation of cellular EGFR and PI3K pathway signaling” value in data set [4] was “modulates cellular EGFR and PI3K pathway signaling”. Moreover, in data set [5], the tolerability entry was “well tolerated”. The “in vivo efficacy when combined with MEK inhibitors” value in data set [6] is listed as “in vivo potentiation of MTX-211 efficacy”. Moreover, the “activity against HCT-116 (KRASmt) tumors” value in data set [7] is reported as “single agent activity”.
